In patent US4673562A, “Bisamide bisthiol compounds useful for making technetium radiodiagnostic renal agents” (The Children's Medical Center Corporation, priority 1983, dated 1987):
“And” between values parts separate entries of the source, which are not always exact repeats. Identical values can stand only once.

How the values were obtained:
[1] = Gamma camera: % total dose in bladder, 99mTc complexes coinjected with 131I-OIH into normal dogs (Tables I, III); type: in vivo, dog; parameters: Comparison of % total dose in bladder versus 131I-OIH, column headed by drawing 19 (± s.d.): unit not given here; conditions: for % Total Dose In Bladder (gamma camera data): single animals; for % total dose in bladder at 35 minutes, Average 99mTc (± s.d) / Comparison of % total dose in bladder versus 131I-OIH, column headed by drawing 19 (± s.d.): Table III; for % total dose in bladder at 35 minutes, Average 99mTc (± s.d): average of dogs; for Comparison of % total dose in bladder versus 131I-OIH, column headed by drawing 19 (± s.d.): dogs; for rate of excretion in the urine: versus 131I-OIH
Experimental: The two fractions collected from the products of synthesis in each case were denoted (XVIA), (XVIB), (XXXIA), and (XXXIB), respectively.
Images were recorded at 1, 5, 10, 15, 20, 25, 30 and 35 minutes after administration. The initial image at one minute was used to collect 750,000 counts. All subsequent images were exposed for the same length of time as this first image, and the number of counts noted. […] In this way, the counts collected in the camera images cound be related to absolute activity levels (mCi or μCi). The animals were then observed until the urine samples were free of ^99m Tc.
The values represent the calculated % total dose in the camera region of interest set over the bladder.

[2] = Average % total dose in urine samples of dogs (Table II); type: in vivo, dog; conditions: mean
Description: The diastereomeric ^99m Tc complexes formed by reduction of pertechnetate in the presence of (2-benzoylthioacetyl)- glycyl-(S-benzoyl)-cysteine methyl ester (compound XVI) and N-2-(benzoylthio)ethyl)-N'-1-carbomethoxy-(2-benzoylthio)ethyl]oxamide (compound XXXI) were synthesized and separated by high pressure liquid chromatography. The two fractions collected from the products of synthesis in each case were denoted (XVIA), (XVIB), (XXXIA), and (XXXIB), respectively.
Samples of each fraction were mixed with appropriate amounts of ^131 I-OIH and coinjected into normal dogs placed under a gamma camera. Images were recorded at 1, 5, 10, 15, 20, 25, 30 and 35 minutes after administration. The initial image at one minute was used to collect 750,000 counts. All subsequent images were exposed for the same length of time as this first image, and the number of counts noted. Immediately after each count, a urine sample was drawn from the bladder via a indwelling catheter, and the ^99m Tc ANd ^131 I activity determined using an ionization chamber. In this way, the counts collected in the camera images cound be related to absolute activity levels (mCi or μCi). The animals were then observed until the urine samples were free of ^99m Tc.
In Table II can be seen the average % total dose valus observed in the urine samples collected at each time point. Also quoted in parentheses are the standard deviation and standard error of the mean.

[3] = Biodistribution in Swiss Webster albino male mice, coinjected with 131I-OIH (Tables IV, V); type: in vivo, mouse; conditions: for Blood, % total dose per organ ± s.d. / Intestine, % total dose per organ ± s.d. / Kidneys, % total dose per organ ± s.d. / Liver, % total dose per organ ± s.d. / Stomach, % total dose per organ ± s.d. / Urine, % total dose ± s.d.: Table IV, XVI A and 131I-OIH coinjected
Experimental: The diastereomers (XVIA) and (XVIB) were synthesized and then isolated by high pressure liquid chromatography as described previously, and their biodistributions obtained in groups in six Swiss Webster albino male mice. […] The mice were then placed in metabolic cages to collect urine. At 10 and 120 minutes after injection, the penis was ligated, the mice killed with chloroform vapor, and the organs disected.

[4] = 5 min post injection, normal dogs, 5 min
[5] = 10 min post injection, normal dogs, 10 min
[6] = 15 min post injection, normal dogs, 15 min
[7] = 20 min post injection, normal dogs, 20 min
[8] = 25 min post injection, normal dogs, 25 min
[9] = 30 min post injection, normal dogs, 30 min
[10] = 35 min post injection, normal dogs, 35 min

## O=C(O)C1C[S][Tc-]23(=[O])[S]CC(=O)[N]2CC(=O)[N]13 (single isomer, unassigned) [XVIA]
[1]; [4]
  % Total Dose In Bladder (gamma camera data): 13.13 % total dose and 9.63 % total dose and 3.25 % total dose
[1]; [5]
  % Total Dose In Bladder (gamma camera data): 38.08 % total dose and 34.15 % total dose and 33.73 % total dose
[1]; [6]
  % Total Dose In Bladder (gamma camera data): 49.99 % total dose and 47.44 % total dose and 46.89 % total dose
[1]; [7]
  % Total Dose In Bladder (gamma camera data): 57.29 % total dose and 59.01 % total dose and 56.40 % total dose
[1]; [8]
  % Total Dose In Bladder (gamma camera data): 63.73 % total dose and 64.39 % total dose and 62.63 % total dose
[1]; [9]
  % Total Dose In Bladder (gamma camera data): 63.67 % total dose and 66.95 % total dose and 58.77 % total dose
[1]; [10]
  % Total Dose In Bladder (gamma camera data): 66.64 % total dose and 72.79 % total dose and 63.08 % total dose
[1]; 35 min
  % total dose in bladder at 35 minutes, Average 99mTc (± s.d): 67.50 % total dose
  Comparison of % total dose in bladder versus 131I-OIH, column headed by drawing 19 (± s.d.): 91.71
[1]; normal dogs
  pharmacokinetic behavior of the diastereomers: identical
  rate of excretion in the urine: comparable rates of excretion to each other and to OIH
[2]; 5 min post injection, 5 min
  Average % Total Dose in Urine Samples: 8.67 % total dose
[2]; 10 min post injection, 10 min
  Average % Total Dose in Urine Samples: 35.32 % total dose
[2]; 15 min post injection, 15 min
  Average % Total Dose in Urine Samples: 48.11 % total dose
[2]; 20 min post injection, 20 min
  Average % Total Dose in Urine Samples: 57.57 % total dose
[2]; 25 min post injection, 25 min
  Average % Total Dose in Urine Samples: 63.25 % total dose
[2]; 30 min post injection, 30 min
  Average % Total Dose in Urine Samples: 63.20 % total dose
[2]; 35 min post injection, 35 min
  Average % Total Dose in Urine Samples: 67.50 % total dose
[3]; 10 min
  Blood, % total dose per organ ± s.d.: 2.24 ± 0.33 % total dose per organ
  Intestine, % total dose per organ ± s.d.: 1.07 ± 0.20 % total dose per organ
  Kidneys, % total dose per organ ± s.d.: 3.19 ± 0.41 % total dose per organ
  Liver, % total dose per organ ± s.d.: 1.39 ± 0.31 % total dose per organ
  Stomach, % total dose per organ ± s.d.: 0.10 ± 0.01 % total dose per organ
  Urine, % total dose ± s.d.: 65.01 ± 9.7 % total dose per organ
[3]; 120 min
  Blood, % total dose per organ ± s.d.: 0.05 ± 0.01 % total dose per organ
  Intestine, % total dose per organ ± s.d.: 0.99 ± 0.59 % total dose per organ
  Kidneys, % total dose per organ ± s.d.: 0.11 ± 0.04 % total dose per organ
  Liver, % total dose per organ ± s.d.: 0.19 ± 0.03 % total dose per organ
  Stomach, % total dose per organ ± s.d.: 0.21 ± 0.47 % total dose per organ
  Urine, % total dose ± s.d.: 89.87 ± 2.70 % total dose per organ
[3]; mice, versus 131I-OIH
  clearance into the urine: cleared rapidly into the urine at comparable rates to each other and to the radiopharmaceutical ^131 I-OIH

## O=C(O)C1C[S][Tc-]23(=[O])[S]CC[N]2C(=O)C(=O)[N]13 (single isomer, unassigned) [XXXIA]
[1]; [4]
  % Total Dose In Bladder (gamma camera data): 5.76 % total dose and 4.12 % total dose and 0.81 % total dose
[1]; [5]
  % Total Dose In Bladder (gamma camera data): 15.30 % total dose and 12.39 % total dose and 9.87 % total dose
[1]; [6]
  % Total Dose In Bladder (gamma camera data): 22.26 % total dose and 15.99 % total dose and 16.51 % total dose
[1]; [7]
  % Total Dose In Bladder (gamma camera data): 28.21 % total dose and 21.59 % total dose and 22.50 % total dose
[1]; [8]
  % Total Dose In Bladder (gamma camera data): 32.68 % total dose and 25.47 % total dose and 27.72 % total dose
[1]; [9]
  % Total Dose In Bladder (gamma camera data): 38.08 % total dose and 30.43 % total dose and 32.34 % total dose
[1]; [10]
  % Total Dose In Bladder (gamma camera data): 41.57 % total dose and 31.19 % total dose and 34.90 % total dose
[1]; 35 min
  % total dose in bladder at 35 minutes, Average 99mTc (± s.d): 35.89 % total dose
  Comparison of % total dose in bladder versus 131I-OIH, column headed by drawing 19 (± s.d.): 46.80
[1]; normal dogs
  rate of excretion in the urine: a significant difference exists between (XXXIA) and (XXXIB)
[2]; 5 min post injection, 5 min
  Average % Total Dose in Urine Samples: 3.56 % total dose
[2]; 10 min post injection, 10 min
  Average % Total Dose in Urine Samples: 12.52 % total dose
[2]; 15 min post injection, 15 min
  Average % Total Dose in Urine Samples: 18.25 % total dose
[2]; 20 min post injection, 20 min
  Average % Total Dose in Urine Samples: 24.10 % total dose
[2]; 25 min post injection, 25 min
  Average % Total Dose in Urine Samples: 28.62 % total dose
[2]; 30 min post injection, 30 min
  Average % Total Dose in Urine Samples: 33.63 % total dose
[2]; 35 min post injection, 35 min
  Average % Total Dose in Urine Samples: 35.89 % total dose

## O=C(O)C1C[S][Tc-]23(=[O])[S]CC[N]2C(=O)C(=O)[N]13 (single isomer, unassigned) [XXXIB]
[1]; [4]
  % Total Dose In Bladder (gamma camera data): 15.45 % total dose and 12.59 % total dose and 12.63 % total dose
[1]; [5]
  % Total Dose In Bladder (gamma camera data): 37.76 % total dose and 28.47 % total dose and 27.98 % total dose
[1]; [6]
  % Total Dose In Bladder (gamma camera data): 49.26 % total dose and 41.85 % total dose and 35.28 % total dose
[1]; [7]
  % Total Dose In Bladder (gamma camera data): 61.08 % total dose and 48.71 % total dose and 43.22 % total dose
[1]; [8]
  % Total Dose In Bladder (gamma camera data): 67.47 % total dose and 55.87 % total dose and 48.35 % total dose
[1]; [9]
  % Total Dose In Bladder (gamma camera data): 70.23 % total dose and 60.72 % total dose and 50.84 % total dose
[1]; [10]
  % Total Dose In Bladder (gamma camera data): 69.76 % total dose and 61.09 % total dose and 57.93 % total dose
[1]; 35 min
  % total dose in bladder at 35 minutes, Average 99mTc (± s.d): 62.93 % total dose
  Comparison of % total dose in bladder versus 131I-OIH, column headed by drawing 19 (± s.d.): 77.80
[1]; normal dogs
  rate of excretion in the urine: a significant difference exists between (XXXIA) and (XXXIB)
[2]; 5 min post injection, 5 min
  Average % Total Dose in Urine Samples: 13.56 % total dose
[2]; 10 min post injection, 10 min
  Average % Total Dose in Urine Samples: 31.40 % total dose
[2]; 15 min post injection, 15 min
  Average % Total Dose in Urine Samples: 42.13 % total dose
[2]; 20 min post injection, 20 min
  Average % Total Dose in Urine Samples: 51.00 % total dose
[2]; 25 min post injection, 25 min
  Average % Total Dose in Urine Samples: 57.23 % total dose
[2]; 30 min post injection, 30 min
  Average % Total Dose in Urine Samples: 60.60 % total dose
[2]; 35 min post injection, 35 min
  Average % Total Dose in Urine Samples: 62.93 % total dose
